Data taken from PMC3344384 (Chemistry & biology, 2011).
Entries after “also recorded” stand apart in the source; their conditions may differ.

What was measured:
USP1/UAF1 [1] = biological target: T1, USP1/UAF1 (Homo sapiens, UniProt O94782); assay: gel-based K63-linked diubiquitin cleavage assay, USP1/UAF1; type: biochemical; conditions: IC50 USP1/UAF1, K63-linked diubiquitin substrate; NI = no significant inhibition at highest inhibitor concentration of 114 μM
USP1/UAF1 complex = USP1/UAF1 complex (Homo sapiens, UniProt O94782+Q8TAF3); assay: native gel electrophoresis of USP1/UAF1 complex; conditions: incubation with inhibitor up to 10 × IC50
Ub-PCNA in HEK293T cells = assay: Western blot of Ub-PCNA level in cells; type: cell-based, human
in vitro = conditions: human
[2] = test system: Ub-FANCD2 in HEK293T cells; assay: Western blot of Ub-FANCD2 level in cells; type: cell-based, human
Ub-H2A in HEK293T cells = assay: histone H2A monoubiquitination in cells; type: cell-based, human; conditions: in the presence or absence of cisplatin
USP1/UAF1 [3] = biological target: T1, USP1/UAF1; assay: steady-state kinetics; type: biochemical
USP1/UAF1 [4] = biological target: USP1/UAF1 (Homo sapiens, UniProt O94782+Q8TAF3); assay: steady-state kinetics; type: biochemical; conditions: Lineweaver-Burk plots, K63-linked di-Ub substrate
Chain of USP1/UAF1 (Homo sapiens, UniProt O94782+Q8TAF3) (O94782 whole entry): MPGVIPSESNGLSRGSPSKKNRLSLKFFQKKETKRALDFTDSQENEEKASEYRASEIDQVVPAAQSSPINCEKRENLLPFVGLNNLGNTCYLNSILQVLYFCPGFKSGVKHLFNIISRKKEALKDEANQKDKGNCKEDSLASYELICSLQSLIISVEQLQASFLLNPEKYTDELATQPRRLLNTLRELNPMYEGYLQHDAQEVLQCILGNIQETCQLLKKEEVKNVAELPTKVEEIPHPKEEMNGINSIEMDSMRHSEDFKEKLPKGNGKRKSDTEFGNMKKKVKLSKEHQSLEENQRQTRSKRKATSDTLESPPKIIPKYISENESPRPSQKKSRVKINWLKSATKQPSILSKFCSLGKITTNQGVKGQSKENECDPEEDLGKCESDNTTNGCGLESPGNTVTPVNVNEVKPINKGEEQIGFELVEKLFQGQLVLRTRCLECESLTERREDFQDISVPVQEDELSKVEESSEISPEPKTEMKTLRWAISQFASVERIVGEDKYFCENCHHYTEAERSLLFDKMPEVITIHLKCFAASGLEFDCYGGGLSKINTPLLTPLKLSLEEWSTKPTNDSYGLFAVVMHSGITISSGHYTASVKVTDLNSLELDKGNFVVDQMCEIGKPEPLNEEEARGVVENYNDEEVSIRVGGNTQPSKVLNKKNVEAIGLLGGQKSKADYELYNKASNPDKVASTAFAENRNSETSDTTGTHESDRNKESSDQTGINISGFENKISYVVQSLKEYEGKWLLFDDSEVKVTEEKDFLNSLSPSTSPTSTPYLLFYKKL
Chain of USP1/UAF1 (Homo sapiens, UniProt O94782+Q8TAF3) (Q8TAF3 whole entry): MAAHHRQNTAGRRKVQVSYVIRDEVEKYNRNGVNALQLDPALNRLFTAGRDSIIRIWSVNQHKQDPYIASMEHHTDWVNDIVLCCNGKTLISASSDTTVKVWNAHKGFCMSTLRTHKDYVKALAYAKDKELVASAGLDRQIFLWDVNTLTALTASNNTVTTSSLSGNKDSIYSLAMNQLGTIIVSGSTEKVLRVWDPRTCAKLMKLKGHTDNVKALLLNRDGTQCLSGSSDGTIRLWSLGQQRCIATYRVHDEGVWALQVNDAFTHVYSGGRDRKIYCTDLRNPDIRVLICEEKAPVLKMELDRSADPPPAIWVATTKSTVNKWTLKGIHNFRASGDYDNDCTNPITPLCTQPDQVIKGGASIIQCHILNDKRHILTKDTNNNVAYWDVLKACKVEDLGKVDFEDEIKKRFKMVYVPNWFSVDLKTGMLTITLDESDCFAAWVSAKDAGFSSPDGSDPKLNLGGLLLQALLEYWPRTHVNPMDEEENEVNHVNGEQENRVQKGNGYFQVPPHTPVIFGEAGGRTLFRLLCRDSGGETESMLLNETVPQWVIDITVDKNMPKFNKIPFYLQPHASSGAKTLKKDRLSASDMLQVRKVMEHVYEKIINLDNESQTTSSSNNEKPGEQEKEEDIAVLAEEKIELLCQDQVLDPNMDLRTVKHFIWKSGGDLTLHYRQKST

T1 sequence (O94782 whole entry): as the sequence (O94782 whole entry) above
T1 sequence (Q8TAF3 whole entry, further chain): as the sequence (Q8TAF3 whole entry) above
Chain of USP1/UAF1 complex (O94782 whole entry): as the sequence (O94782 whole entry) above
Chain of USP1/UAF1 complex (Q8TAF3 whole entry): as the sequence (Q8TAF3 whole entry) above

| IC50 (USP1/UAF1 [1]) [µM] | Compound | dissociation of the USP1/UAF1 complex (USP1/UAF1 complex) | monoubiquitination of PCNA, single agent (Ub-PCNA in HEK293T cells) | EC50 at 48 h (in vitro) [µM] | Ub-FANCD2 level, single agent [2] | effect on level of Ub-H2A (Ub-H2A in HEK293T cells) | Ki (USP1/UAF1 [3]) [nM] | inhibition mechanism (USP1/UAF1 [4]) |
| --- | --- | --- | --- | --- | --- | --- | --- | --- |
| ≤ 8 | CN1CCN(CCCN2c3ccccc3Sc3ccc(C(F)(F)F)cc32)CC1 [Trifluoperazine, trifluoperazine] | – | – | – | – | – | – | – |
| 7 ± 1 | OCCN1CCN(CCC=C2c3ccccc3Sc3ccc(C(F)(F)F)cc32)CC1 [Flupenthixol, flupenthixol] | – | – | – | – | – | – | – |
| – | O=c1[nH]c2ccccc2n1C1CCN(CCCC(c2ccc(F)cc2)c2ccc(F)cc2)CC1 [Pimozide, pimozide] | no dissociation | significant increase | 21 | increase in Ub-FANCD2 level | no effect | 500 | noncompetitively; also recorded: noncompetitive inhibition mechanism |
| – | CC(C)(Sc1ccc(CCN(CCCCC2CCCCC2)C(=O)NC2CCCCC2)cc1)C(=O)O [GW7647] | no dissociation | significant increase | 26 | increase in Ub-FANCD2 level | no effect | 700 | noncompetitively; also recorded: noncompetitive inhibition mechanism |
